Data on two compounds can be found in patent US20090227534A1, “Pharmaceutical Composition Comprising the Combination of a Ketorolac Salt and Vitamins of the-B-Complex for the Treatment of Neuralgia” (LABORATORIOS SENOSITAN S.A. DE C.V., priority 2006, published 2009).

Like-named read-outs stand apart in the source and are kept apart here.

In one data set the test system is rats. Put plainly: Antinociception, formalin test (1% 50 μl), second phase. Type of data set: in vivo. Conditions: rat, phase two; for Emax: read-out: maximum effect (decrease in number of shakes).
The subject of another data set is rat paw. Put plainly: Antinociceptive effect, heat-stimulation model in the rat paw (carrageen). Type of data set: in vivo. Conditions: oral, measured for 6 hours. How it is done: Methodology: We worked with five groups of 8 rats each. The antinociceptive effect was evaluated through the heat-stimulation model in the rat paw. Used substances: saline solution, carrageen to produce the nociceptive effect (pain), ketorolac, riboflavin and B-complex (vitamins B1, B6 and B12). For the doses-response curve, each group received a ketorolac dose so that 0.32, 1, 1.8, 3.2 y 10 mg/kg of weight were administrated orally. The antinociceptive effect was measured for 6 hours. Latency time curves were plot on a graph (the time rat takes before moving […] its paw to avoid the pain) as a function of time. Saline solution was used as a negative control solution (establishing the base level) and carrageen to produce a sensitizing effect (inflammation). […] The following were administered: Riboflavin (alone), Ketorolac (alone), B-Complex (alone), Ketorolac and Riboflavin combination, and Ketorolac and B-Complex combination. Isobolograms were made in order to evaluate the interaction between ketorolac and B-complex using the ED25 values (effective doses) obtained from the dose-response curves for the administered drugs alone or combined.

Data set [1] in a line: Laboratory stability tests: ketorolac with acid solutions, direct combination with B-complex, light exposure. Type of data set: physicochemical. Here is the method:
(§1) Clinical studies have shown that ketorolac is a strong and effective analgesic. […] Ketorolac is one of the few non-steroidal anti-inflammatory drugs approved for parenteral administration. However, when administered in combination with other substances, it usually presents stability problems.
Currently, there are no individual pharmaceutical forms for the parenteral administration of ketorolac at 15 mg/ml and B-complex, as described in this invention.
The above situation makes impossible to simply combine ketorolac and B-complex, making it necessary to research and develop a system that provides appropriate stability characteristics for parenteral administration.

Data set [2] in a line: Solubility of ketorolac in water. The format is physicochemical.
Source text: as §1

For data set [3] the following is noted: cited from earlier work; for time to reach maximum plasma concentration (tmax): healthy humans.

Method for rats: We worked with five groups of 8 rats each. The antinociception effect was evaluated via the formalin test (1% 50 μl); rats are placed in an observation chamber made of acrylic material. The nociceptive behavior was evaluated based on the number of shakes at the injected paw.
Used substances: saline solution, formalin (produces nociceptive effect), ketorolac, riboflavin and B-complex (vitamins B1, B6 and B12).
For the dose-response curve, each group received a 0.32-10 mg/kg of ketorolac dose, 6.25-100 mg/kg of riboflavin, 56-316 mg/kg of B-complex, ketorolac-B-complex combination and ketorolac-riboflavin combinations.
The antinociceptive effect was measured for sixty minutes. […] Acute or initial phase from 0 to 10 minutes and tonic phase from 15 to 60 minutes.
Curves for the number of shakes against time were plot and the area under the curve was obtained (AUC) for the second phase, using the trapezoids method.
The dose-response curve for each composition was obtained as the percentage of the maximum possible effect.
The antinociceptive effect of ketorolac, B-complex in ratios of 100:100:1 of B1, B6 and B12 (respectively), riboflavin, ketorolac-B-complex combination, and ketorolac-riboflavin combination were evaluated.
A saline solution was used as a negative control solution (base level).
Administration: riboflavin (alone), ketorolac (alone), B-complex (alone), ketorolac-riboflavin combination, and ketorolac-B-complex combination.

As to `Cc1cc2nc3c(=O)[nH]c(=O)nc-3n(C[C@H](O)[C@H](O)[C@H](O)CO)c2cc1C` [riboflavin, Riboflavin], in the data set with rats, the ED25 came out at 39.8 ± 7.1 mg/kg and the Emax is 33%. Further, the “antinociceptive effect (area under the latency curve as a function of time), dose-response” value in the data set with rat paw is recorded as “dose-dependant response”.
For `O=C(c1ccccc1)c1ccc2n1CCC2C(=O)O` (racemic) [ketorolac, (±)-5(benzoyl)-2,3-dihydro-1N-pyrrolizine-1-carboxylic acid tris hydroxy methyl amino methane], in the data set with rats, the ED25 was found to be 2.1 ± 0.5 mg/kg and the Emax turned out to be 36%. In addition, in data set [1], the “stability when acid solutions are present” value is recorded as “decreases significantly”. For the same compound, in the data set with rat paw, the “antinociceptive effect (area under the latency curve as a function of time), dose-response” value was “dose-dependant response”. Besides, the solubility in water result in data set [2] was “highly soluble”. In data set [3] (intramuscular), the “time to reach maximum plasma concentration (tmax)” value was 46 min. In data set [3] (oral), the “time to reach maximum plasma concentration (tmax)” value was 53 min. In data set [3] (humans), the excreted in feces is 6% and the excreted in urine is 92%.
